Laboratory results from patent US20240159744A1, “COLON CANCER DIAGNOSIS OR DETECTION COMPOSITION FOR PREDICTING RESPONSE TO DRUG, AND COMPOSITION FOR PREVENTING OR TREATING COLON CANCER” (priority 2020, published 2024).

Experiments:
HCT-8-bearing mice = test: Antitumor effect of EGF-prodrug in vivo; conditions: 1 mg/kg of DOX, 6 times every 3 days, 21 days
Description: 2×10^6 HCT-15 cells or HCT-8 cells were subcutaneously inoculated to Balb/c-nude mice. […] The injection was carried out into the tail vein every 3 days for a total of 6 times. Antitumor effect was evaluated by sacrificing the mice to which the HCT-15 or HCT-8 cells were administered and measuring the volume of tumor tissue. The volume of the tumor tissue was calculated every day or every other day by 0.53×length×width^2. Tumor growth was monitored for 21 days. After sacrificing the mice, the HCT-15 or HCT-8 tumor tissues were collected. The dissected tumors were imaged and fixed by treating with 4% paraformaldehyde. […] The sections were used for histological or pathological investigation. They were stained with H&E for visualization and subjected to TUNEL assay using a […] TUNEL system (Promega, WI, USA) for investigation of the apoptosis of cancer cells. The tumor tissues stained with H&E and TUNEL were observed using a BX51 optical microscope (Olympus, Tokyo, Japan) and a TCS SP8 confocal laser microscope.

[1] = system: HCT-15 tumor-bearing mice; test: In-vivo and ex-vivo fluorescence imaging of EGF-Cy5.5, C-probe, EGF-probe; conditions: cryosections, confocal
Description: The biodistribution of the EGF-probe intravenously administered to mice having HCT-15, HT29, Lovo or HCT-8 tumors was evaluated. First of all, 6-week-old Balb/c-nude mice (Nara-Biotec, Gyeonggi-do, Korea) were prepared and each cell was subcutaneously inoculated into the nude mice at the right flank at a concentration of 2×10^6 cells/mouse to generate tumors. […] At 24 hours after the administration of the EGF-probe, the mouse was imaged using an IVIS fluorescence imaging system. […] IVIS fluorescence imaging was conducted at 24 hours after the administration. Major organs and tumors were obtained and imaged with an IVIS imaging system. The fluorescence intensity of the organs and tumors was analyzed using the Living Image 2.50 software. […] The tumor tissue sections were counter-stained with DAPI and visualized with a confocal microscope.

[2] = system: HCT-15, HT29, Lovo and HCT-8 cells; test: In-vitro toxicity test (CCK-8), statements over all four cell lines; type: cell-based, human; conditions: 48 hours
Description: First, HCT-15 cells were plated on a 96-well plate at a density of 5×10^3 cell/well. […] 48 hours later, the medium was removed and the cells were treated with a cell counting kit (CCK-8, Dojindo, Japan) at 37° C. for 1 hour. Absorbance was measured at 450 nm using a VERSAmax™ microplate reader (Molecular Devices Corp., CA, USA). The cell viability of each group (n=5) was represented as a percentage of normal untreated cells (control group). […] After removing the medium, cell viability was evaluated by CCK-8 assay.

[3] = system: HCT-15 tumor-bearing mice; test: Tumor-targeting ability and biodistribution of DOX, C-prodrug, EGF-prodrug; type: in vivo; conditions: intravenous, 24 hours
Excerpt: In addition, the tumor-targeting ability of DOX, the C-prodrug and the EGF-prodrug was compared.

Molecule | tumor size (HCT-8-bearing mice) | fluorescence of tumor tissue sections [1] | cytotoxicity versus concentration [2] | ex-vivo distribution in organs and tumor [3]
(Ac)CGFLG-DOX [C-prodrug] | not controlled significantly |  |  | 
Cy5.5-GFLGGK(BHQ-3)GG-COOH [C-probe] |  | much weaker fluorescence signals |  | 
COc1cccc2c1C(=O)c1c(O)c3c(c(O)c1C2=O)C[C@@](O)(C(=O)CO)C[C@@H]3O[C@H]1C[C@H](N)[C@H](O)[C@H](C)O1.Cl [DOX, doxorubicin hydrochloride] | not controlled significantly |  | increased with the concentration | significant amounts were accumulated also in the lung, liver and kidney
